Experiment in all cases: growth of human tumour cells (NCI), 48 h
Test [1] deals with A498 renal.
Test [2] concerns COLO 205 colon.
In test [3] the test system is DU-145 prostate.
Test [4] has as its system HCC-2998 colon.
For test [5], the system named is KM12 colon.
In test [6] the test system is NCI-H226 lung.
The test system of test [7] is NCI-H522 lung.
Test [8] relates to OVCAR-3 ovarian.
For test [9], the system named is T-47D breast.
The test system of test [10] is U251 CNS.

This passage reports TGI results from PubChem BioAssay (NCI).

Structures are written as SMILES.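 Five compound concentrations were applied to cells in 96-well plates for 48 hours; endpoints were derived by simple linear interpolation of the resulting dose-response curve. TGI: total growth inhibition.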

`Cc1[nH]c(-c2ccccc2)c(-c2ccc(Cl)cc2)c1C(=O)ONC(=O)c1ccccc1`: the TGI in [1] was 18.4 µM; in test [2], 22.9 µM; in test [3] it was 3.76 µM; in test [4], 16.2 µM; in [5], greater than 48.3 µM; in test [6] it was 11.6 µM. The TGI in test [7] came to 5.42 µM; in test [8], 14.9 µM; in test [9], 18.1 µM; in [10], 3.6 µM.

With `COC(=O)[C@@H]1N2C(=S)N(c3ccccc3)C(=O)[C@H]2SC1(C)C`, the TGI in test [1], in test [2], in test [3], in test [4], in test [5] and in [6] was greater than 100 µM in each case. Besides, the TGI in test [7], in test [8], in test [9] and in [10] was greater than 100 µM in each case.

With `CCOC(=O)C1=C(C)NC(=S)NC1c1cccc(O)c1` (configuration not stated), the TGI was 87.6 µM in test [1]; greater than 82.3 µM in [2]; greater than 100 µM in test [3]; greater than 90.4 µM in test [4]; greater than 100 µM in test [5]; greater than 100 µM in test [6]. The TGI in [7] was 93.9 µM; in test [8], greater than 100 µM; in test [9], greater than 100 µM; in test [10], greater than 96.5 µM.

As to `O=C(NNC(=S)Nc1ccccc1)c1csc(NC(=S)NC2CCCCC2)n1`, the TGI in test [1], in test [2], in [3], in test [4], in test [5] and in test [7] was greater than 100 µM throughout. The TGI in test [8], in [9] and in test [10] was greater than 100 µM in each case.

`CN(C(=O)c1ccc(Cl)s1)C(=S)N(C)C(=O)c1ccc(Cl)s1`: the TGI in test [1], in test [2], in [3], in [4], in test [5] and in test [6] was greater than 10 µM throughout. The TGI in [7], in [8], in [9] and in test [10] was greater than 10 µM throughout.

Regarding `O=C1c2ccccc2CC12Cc1ccc3c(c1C2)CCC3` (configuration not stated), the TGI was greater than 100 µM in test [1]; 59.3 µM in [2]; greater than 100 µM in [3]; 54.7 µM in test [4]; 73.9 µM in test [5]; 64.7 µM in [6]. Moreover, the TGI is 25.2 µM in test [7], 41.7 µM in [8], greater than 100 µM in test [9] and 38 µM in [10].

With `COC(=O)c1cncc2c1CC1C3(C(=O)OC)C=NC(C4C(CO)=CCC43)C21C` (configuration not stated), the TGI in test [1], in test [2], in test [3], in [4], in [5] and in test [6] was greater than 100 µM each time. In addition, the TGI in [7], in test [9] and in test [10] was greater than 100 µM throughout.

As for `Cc1cc(S(=O)(=O)Nc2nnc3cc(C(F)(F)F)cc(C)n23)c(S)cc1Cl`, the TGI is 37.2 µM in [1]; greater than 100 µM in test [2]; greater than 100 µM in [3]; greater than 70.1 µM in [4]; greater than 100 µM in test [5]; greater than 96.5 µM in test [6]. For the same compound, the TGI in test [7] was greater than 100 µM; in test [8] it was greater than 100 µM; in test [9] it was greater than 100 µM; in test [10], greater than 81.5 µM.

For `CCCCCCCCCCCCCCCCCCOCC(O)COP(=O)(O)OCC1OC(n2cc(F)c(=O)[nH]c2=O)CC1O` (configuration not stated), the TGI in test [1] was greater than 56 µM; in [2], 21.9 µM; in [3], 23.5 µM; in [4], 2.92 µM; in test [5] it was 51 µM; in test [6], greater than 53.8 µM. The TGI in test [7] is 27.9 µM; in test [8] it was 46.7 µM; in test [9] it was 38.8 µM; in [10], 22.4 µM.

In the case of `N#CCc1nc(C#N)c(N)o1`, the TGI in [1], in [2], in test [3], in test [4], in test [5] and in test [6] was greater than 100 µM each time. Besides, the TGI in [7], in test [8], in test [9] and in test [10] was greater than 100 µM each time.

Take `CCOC(=O)c1c(N2CCOCC2)[nH]c(=O)c(C(c2ccc(OC)cc2)c2c(O)c(C(=O)OCC)c(N3CCOCC3)[nH]c2=O)c1O`: the TGI in test [1], in test [2], in test [3], in test [4], in test [5] and in test [6] was greater than 100 µM throughout. The TGI in test [7], in test [8], in test [9] and in test [10] was greater than 100 µM each time.

Consider `CC(C)(C)N1Cc2ccccc2/C(=C/Sc2ccccc2)C1=O`, for which the TGI in test [1] came out at 35.4 µM; in [2] it was 39 µM; in test [3] it was 32.7 µM; in test [4], 34.4 µM; in test [5] it was 31.4 µM; in test [6], 25.9 µM. For the same compound, the TGI was determined as 11.4 µM in test [7], 25.1 µM in test [8], 45.3 µM in test [9] and 27.3 µM in test [10].

For the compound `Cc1cc(S(=O)(=O)Nc2nc(N)nc(N3N=CCC3C)n2)c(S)cc1Cl` (configuration not stated), the TGI in test [1], in test [2], in test [3], in [4], in test [5] and in test [6] was greater than 10 µM in each case. Besides, the TGI in test [7], in [8], in test [9] and in [10] was greater than 10 µM in each case.

`CCCCSc1n/c(=C\c2ccc(N(C)C)cc2)c2nnnn12`: the TGI in [1], in test [2], in [3], in [4], in test [5] and in [6] was greater than 100 µM in each case. For the same compound, the TGI in test [7], in [8], in [9] and in test [10] was greater than 100 µM throughout.

As to `COc1ccc2c(c1)CCc1c-2n(CCN(C)C)c2ccc(OC)cc12`, the TGI in [1] was 41.1 µM; in test [2], greater than 100 µM; in [3], greater than 100 µM; in test [4], greater than 100 µM; in [5], 86.7 µM; in [6], 10.6 µM. For the same compound, the TGI was 75.9 µM in [7], greater than 100 µM in [8], 85.4 µM in test [9] and 78.7 µM in test [10].

Turning to `O=C(NCCNCCO)N/N=C/c1ccc(Cl)cc1`, the TGI in [1], in test [2], in test [3], in test [4], in test [5] and in [6] was greater than 100 µM in each case. Moreover, the TGI in test [7], in [8], in test [9] and in test [10] was greater than 100 µM throughout.

On to `N#CC1=CNc2sccc2S1(=O)=O`, for which the TGI in [1], in [2], in [3], in test [4], in test [5] and in test [6] was greater than 100 µM in each case. Besides, the TGI in [7], in test [8], in test [9] and in test [10] was greater than 100 µM throughout.

With `CSCCC(NC(=O)OC(C)(C)C)C(=O)NCCNc1ccc(NCCNC(=O)C(CCSC)NC(=O)OC(C)(C)C)c2c1C(=O)c1ccccc1C2=O` (configuration not stated), the TGI was 21.1 µM in test [1]; 5.41 µM in test [2]; 33.2 µM in test [3]; 5.99 µM in test [4]; greater than 63.6 µM in test [5]; 19.7 µM in test [6]. The TGI in test [7] was found to be 3.38 µM; in test [8], 15.6 µM; in test [9], 12.1 µM; in test [10], 10.6 µM.

With `CCN(CC)CCCNc1ccc2nnn3c4ccc(O)cc4c(=O)c1c23`, the TGI came out at 24.3 µM in test [1]; 19.5 µM in test [2]; 24.1 µM in test [3]; 23.4 µM in [4]; 20 µM in [5]; 22.4 µM in [6]. Also, the TGI in test [7] is 24.3 µM; in [8] it was 25.2 µM; in test [9] it was 39.9 µM; in test [10], 7.61 µM.

With `N#Cc1c2c(c(N3CCOCC3)n3c1nc1ccccc13)CCCC2`, the TGI was 34.5 µM in [1]; 37.5 µM in test [2]; 37.2 µM in test [3]; 40.9 µM in test [4]; greater than 100 µM in test [5]; 32.5 µM in test [6]. The TGI in test [7] was found to be 30.1 µM; in [8], 36.5 µM; in test [9], 41.5 µM; in [10], 28.3 µM.

Take `O=C(Nc1cccc(-c2cn3ccccc3n2)c1)c1ccncc1`: the TGI in test [1] was greater than 100 µM; in test [2], 88.8 µM; in [3] it was greater than 100 µM; in [4], greater than 100 µM; in test [5], greater than 100 µM; in test [6], greater than 100 µM. Besides, the TGI in test [7] was 72.4 µM; in test [8], greater than 100 µM; in test [9], 79.6 µM; in [10] it was greater than 100 µM.

Regarding `O=C1C=CC(=O)c2ncccc21`, the TGI was 27.4 µM in [1]; 7.64 µM in [2]; 20.4 µM in test [3]; 21 µM in [4]; 25.5 µM in test [5]; 32.4 µM in test [6]. Also, the TGI turned out to be 3.44 µM in [7], 4.13 µM in [8], 5.18 µM in [9] and 17 µM in test [10].

With `O=C(NCCO)c1ccc(Cl)cc1`, the TGI in [1], in test [3], in test [4], in test [5], in test [6] and in test [7] was greater than 100 µM throughout. Besides, the TGI in [8], in test [9] and in test [10] was greater than 100 µM each time.

For `O=C(N=Nc1ccccc1Br)NNc1ccccc1Br`, the TGI in [1] was greater than 100 µM; in test [3], greater than 100 µM; in test [4], 56.6 µM; in test [6] it was greater than 100 µM; in test [7], greater than 100 µM; in [8] it was greater than 100 µM. The TGI in [9] and in test [10] was greater than 100 µM in each case.

For `COc1cc(/C=C2/SC(c3ccccc3)N(c3cccc([N+](=O)[O-])c3)C2=O)cc(OC)c1OC` (configuration not stated), the TGI in [1], in test [2], in test [3], in test [4], in test [5] and in test [6] was greater than 100 µM in each case. Also, the TGI in test [7], in [8], in [9] and in test [10] was greater than 100 µM throughout.

Regarding `O=C(/C=C/c1ccc([N+](=O)[O-])cc1)c1nc2ccccc2[nH]1`, the TGI in test [1] was 3.99 µM; in test [2], greater than 100 µM; in test [3] it was greater than 100 µM; in test [5], greater than 100 µM; in test [6], 4.39 µM; in test [7] it was greater than 100 µM. In addition, the TGI in test [8] was greater than 78.1 µM; in test [9] it was greater than 84.8 µM; in test [10], greater than 100 µM.

In the case of `NC(N)=N/N=C/c1nc2sccn2c1[N+](=O)[O-]`, the TGI was greater than 100 µM in test [1]; 29.7 µM in test [2]; 57.1 µM in test [3]; 47.6 µM in [5]; greater than 100 µM in [6]; 89.9 µM in test [7]. Moreover, the results for the TGI in test [8], in [9] and in test [10] were 50.5 µM, 65.1 µM and greater than 100 µM, respectively.

With `OCCN=C1Nc2ccc(Cl)cc2C(=S)N2CSC[C@@H]12`, the TGI in test [1], in test [2], in test [3], in test [4], in test [5] and in test [7] was greater than 100 µM in each case. Further, the TGI in [8], in [9] and in test [10] was greater than 100 µM in each case.
